# Experimental data taken from patent publication US6482802B1 (Endowment for Research in Human Biology, Inc., priority 1998, dated 2002).
# Values joined by “and” are separate entries in the source; they are usually repeats but may differ in a detail not shown here. Equal values may be shown once.
# How the values were obtained:
# [1] = test system: nuclear translocation of aFGF in HUVE cells; experiment: Nuclear translocation of 125I-aFGF in HUVE cells; type: cell-based, human; settings: for aFGF Counts (nuclear fraction): 125I-aFGF 50 ng/ml, 0 μM: 7800 ± 100
# Experimental: (§1) Inhibition of nuclear translocation of angiogenic factors in HUVE cells was performed in the following manner. […] The cell pellet was washed once with PBS and lysed with 0.5% triton X-100 in PBS. […] Radioactivity in the nuclear fraction was determined with a gamma counter.
# [2] = test system: chorioallantoic membrane (CAM) of chick embryos; experiment: CAM assay, aFGF-induced angiogenesis; type: in vivo; settings: for % Positive: aFGF alone 73, water 21
# Experimental: (§2) Angiogenesis was measured on the CAM by the method of Knighton et al. (Knighton et al., 1977, Br. J. Cancer 35:347-356) essentially as described (Fett et al., 1985, Biochemistry 24:5480-5486). Fertilized chicken eggs were kept at 18° C. for 2 days and then incubated in a humidified environment at 37° C. for 3 days. Albumin was aspirated from the embryos and after 24 hours, a “window” was cut through the shell and covered with clear tape. […] After 48-68 hours at 37° C., the growth of blood vessels was observed microscopically and recorded as either positive or negative. A positive response (i.e., an angiogenic response) has a typical “spokewheel” appearance.
# [3] = test system: nuclear translocation of 125I-angiogenin in HUVE cells; experiment: Nuclear translocation of 125I-angiogenin in HUVE cells
# [4] = test system: nuclear translocation of bFGF in HUVE cells; experiment: Nuclear translocation of 125I-bFGF in HUVE cells; type: cell-based, human; settings: for bFGF Counts (nuclear fraction): 125I-bFGF 50 ng/ml, 0 μM: 18300 ± 200
# Experimental: as §1
# [5] = test system: nuclear translocation of EGF in HUVE cells; experiment: Nuclear translocation of 125I-EGF in HUVE cells; type: cell-based, human; settings: for EGF Counts (nuclear fraction): 125I-EGF 50 ng/ml, 0 μM: 140 ± 20
# Experimental: as §1
# [6] = test system: chorioallantoic membrane (CAM) of chick embryos; experiment: CAM assay, angiogenin-induced angiogenesis; type: in vivo; settings: for % Positive (angiogenic response): angiogenin alone 55, water 20
# Experimental: as §2
# HUVE cells = experiment: HUVE cell number with neomycin alone, no angiogenic factor; type: cell-based, human; settings: 48 hrs, 0 μM: 31400 ± 400
# Experimental: The cells were incubated at 37° C. under humidified air containing 5% CO2 for 48 hrs. […] Cell numbers were determined with a Coulter counter.
substance,measurement,setting,value
neomycin,aFGF % Inhib. of nuclear translocation,[1]; neomycin 10 μM,15%
same,aFGF Counts (nuclear fraction),[1]; neomycin 10 μM,6600 ± 100 cpm
same,aFGF % Inhib. of nuclear translocation,[1]; neomycin 50 μM,26%
same,aFGF Counts (nuclear fraction),[1]; neomycin 50 μM,5800 ± 100 cpm
same,aFGF % Inhib. of nuclear translocation,[1]; neomycin 100 μM,32%
same,aFGF Counts (nuclear fraction),[1]; neomycin 100 μM,5300 ± 100 cpm
same,aFGF % Inhib. of nuclear translocation,[1]; neomycin 150 μM,38%
same,aFGF Counts (nuclear fraction),[1]; neomycin 150 μM,4800 ± 100 cpm
same,aFGF % Inhib. of nuclear translocation,[1]; neomycin 200 μM,43%
same,aFGF Counts (nuclear fraction),[1]; neomycin 200 μM,4500 ± 200 cpm
same,% Inhibition of angiogenic activity,[2]; aFGF 10 ng + neomycin 20 ng,71%
same,Positive eggs,"[2]; aFGF 10 ng + neomycin 20 ng, 14 total eggs",5
same,% Positive,[2]; aFGF 10 ng + neomycin 20 ng,36%
same,% Inhibition of angiogenic activity,[2]; aFGF 10 ng + neomycin 200 ng,75%
same,Positive eggs,"[2]; aFGF 10 ng + neomycin 200 ng, 47 total eggs",16
same,% Positive,[2]; aFGF 10 ng + neomycin 200 ng,32% and 34%
same,dosage that inhibited aFGF-induced angiogenesis,[2]; in vivo,about 200 ng per embryo
same,% inhibition of nuclear translocation of angiogenin,"[3]; inhibitor 10 μM, 125I-angiogenin 1 μg/ml 30 min",42%
same,Nuclear 125I-angiogenin,"[3]; inhibitor 100 μM, 37° C. 30 min, 125I-angiogenin 1 μg/ml 30 min, control 3090 ± 260",1230 ± 60 cpm
same,"125I-angiogenin accumulated in the nucleus, % of control",[3]; neomycin 500 μM,14%
same,Nuclear accumulated 125I-angiogenin,"[3]; neomycin 500 μM, control 3090±260",420±100 cpm
same,IC50,"[3]; read-out: IC50, angiogenin nuclear translocation, HUVE cells",~50 µM
same,bFGF % Inhib. of nuclear translocation,[4]; neomycin 10 μM,13%
same,bFGF Counts (nuclear fraction),[4]; neomycin 10 μM,15900 ± 100 cpm
same,bFGF % Inhib. of nuclear translocation,[4]; neomycin 50 μM,22%
same,bFGF Counts (nuclear fraction),[4]; neomycin 50 μM,14300 ± 100 cpm
same,bFGF % Inhib. of nuclear translocation,[4]; neomycin 100 μM,26%
same,bFGF Counts (nuclear fraction),[4]; neomycin 100 μM,13500 ± 300 cpm
same,bFGF % Inhib. of nuclear translocation,[4]; neomycin 150 μM,32%
same,bFGF Counts (nuclear fraction),[4]; neomycin 150 μM,12400 ± 200 cpm
same,bFGF % Inhib. of nuclear translocation,[4]; neomycin 200 μM,40%
same,bFGF Counts (nuclear fraction),[4]; neomycin 200 μM,10900 ± 100 cpm
same,EGF % Inhib. of nuclear translocation,[5]; neomycin 10 μM,0%
same,EGF Counts (nuclear fraction),[5]; neomycin 10 μM,140 ± 20 cpm
same,EGF % Inhib. of nuclear translocation,[5]; neomycin 50 μM,0%
same,EGF Counts (nuclear fraction),[5]; neomycin 50 μM,140 ± 20 cpm
same,EGF % Inhib. of nuclear translocation,[5]; neomycin 100 μM,7%
same,EGF Counts (nuclear fraction),[5]; neomycin 100 μM,130 ± 30 cpm
same,EGF % Inhib. of nuclear translocation,[5]; neomycin 150 μM,14%
same,EGF Counts (nuclear fraction),[5]; neomycin 150 μM,120 ± 10 cpm
same,EGF % Inhib. of nuclear translocation,[5]; neomycin 200 μM,29%
same,EGF Counts (nuclear fraction),[5]; neomycin 200 μM,100 ± 20 cpm
same,dose that abolishes the angiogenic activity of angiogenin,[6]; angiogenin 10 ng,20 ng per egg
same,% Positive (angiogenic response),[6]; angiogenin 10 ng + neomycin 4 ng,40%
same,% Positive (angiogenic response),[6]; angiogenin 10 ng + neomycin 20 ng,20%
same,% Positive (angiogenic response),[6]; angiogenin 10 ng + neomycin 200 ng,25%
same,Control Cell No.,HUVE cells; neomycin 25 μM,29800 ± 300
same,Control Cell No.,HUVE cells; neomycin 50 μM,28800 ± 1000
same,Control Cell No.,HUVE cells; neomycin 100 μM,27900 ± 500
same,Control Cell No.,HUVE cells; neomycin 150 μM,27400 ± 200
same,Control Cell No.,HUVE cells; neomycin 200 μM,26300 ± 400
